Reference: BigSolDB 2.1

## O=S(=O)(c1ccccc1)c1ccc(Cl)cc1
In ethanol, 278.15 K
  solubility (mole fraction): 0.00091
In ethanol, 283.15 K
  solubility (mole fraction): 0.00105
In ethanol, 288.15 K
  solubility (mole fraction): 0.00121
In ethanol, 293.15 K
  solubility (mole fraction): 0.00142
In ethanol, 298.15 K
  solubility (mole fraction): 0.00166
In ethanol, 303.15 K
  solubility (mole fraction): 0.00189
In ethanol, 308.15 K
  solubility (mole fraction): 0.00221
In ethanol, 313.15 K
  solubility (mole fraction): 0.00261
In ethanol, 318.15 K
  solubility (mole fraction): 0.00301
In ethanol, 323.15 K
  solubility (mole fraction): 0.00358
In isopropanol, 278.15 K
  solubility (mole fraction): 0.00198
In isopropanol, 283.15 K
  solubility (mole fraction): 0.00236
In isopropanol, 288.15 K
  solubility (mole fraction): 0.00283
In isopropanol, 293.15 K
  solubility (mole fraction): 0.00338
In isopropanol, 298.15 K
  solubility (mole fraction): 0.00395
In isopropanol, 303.15 K
  solubility (mole fraction): 0.00468
In isopropanol, 308.15 K
  solubility (mole fraction): 0.00547
In isopropanol, 313.15 K
  solubility (mole fraction): 0.00629
In isopropanol, 318.15 K
  solubility (mole fraction): 0.00722
In isopropanol, 323.15 K
  solubility (mole fraction): 0.00838
In methanol, 278.15 K
  solubility (mole fraction): 0.000276
In methanol, 283.15 K
  solubility (mole fraction): 0.000332
In methanol, 288.15 K
  solubility (mole fraction): 0.000401
In methanol, 293.15 K
  solubility (mole fraction): 0.00049
In methanol, 298.15 K
  solubility (mole fraction): 0.000572
In methanol, 303.15 K
  solubility (mole fraction): 0.000668
In methanol, 308.15 K
  solubility (mole fraction): 0.000781
In methanol, 313.15 K
  solubility (mole fraction): 0.0009
In methanol, 318.15 K
  solubility (mole fraction): 0.00105
In methanol, 323.15 K
  solubility (mole fraction): 0.00125
In n-propanol, 278.15 K
  solubility (mole fraction): 0.00351
In n-propanol, 283.15 K
  solubility (mole fraction): 0.00411
In n-propanol, 288.15 K
  solubility (mole fraction): 0.00479
In n-propanol, 293.15 K
  solubility (mole fraction): 0.00555
In n-propanol, 298.15 K
  solubility (mole fraction): 0.00645
In n-propanol, 303.15 K
  solubility (mole fraction): 0.00754
In n-propanol, 308.15 K
  solubility (mole fraction): 0.00885
In n-propanol, 313.15 K
  solubility (mole fraction): 0.0102
In n-propanol, 318.15 K
  solubility (mole fraction): 0.0116
In n-propanol, 323.15 K
  solubility (mole fraction): 0.0137
In water, 278.15 K
  solubility (mole fraction): 2.88e-06
In water, 283.15 K
  solubility (mole fraction): 3.77e-06
In water, 288.15 K
  solubility (mole fraction): 4.7e-06
In water, 293.15 K
  solubility (mole fraction): 5.95e-06
In water, 298.15 K
  solubility (mole fraction): 7.38e-06
In water, 303.15 K
  solubility (mole fraction): 9.03e-06
In water, 308.15 K
  solubility (mole fraction): 1.1e-05
In water, 313.15 K
  solubility (mole fraction): 1.34e-05
In water, 318.15 K
  solubility (mole fraction): 1.61e-05
In water, 323.15 K
  solubility (mole fraction): 1.94e-05
